# Experimental data reported in US20050136444A1 (priority 2003, published 2005).
# pEC50: −log10 of the molar value. Where “and” joins values, the source holds several entries; their conditions need not be identical. Equal entries are not always repeated. Entries after “also recorded” stand apart in the source; their conditions may differ. Structures can show the parent of a compound that is named as a salt. Where two headings read alike, the source gives them in different places.
# Experiments:
# NPFF2 = biological target: T1, NPFF2 (Homo sapiens, UniProt Q9Y5X5); assay: Receptor Selection and Amplification Technology (R-SAT) functional assay, NPFF2; type: cell-based; conditions: for NPFF2b % Efficacy Mean: Hydrochloride
# T1 construct: expressed in transfected cells; host or cells: NIH3T3
# In short: (§1)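 NIH3T3 cells transiently transfected for 16-20 h with receptor and β-galactosidase plasmids, then grown with compound for five days at 5% CO2. Functional response read as β-galactosidase activity with ONPG substrate, colorimetric absorbance at 420 nm.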
# rats = assay: Observed behaviors / side effects after systemic administration; type: in vivo, rat
# Procedure: These behaviors typically precede “barrel-rolling” seizures.
# These effects persisted between 15 and 20 minutes. These effects were not observed in rats that received doses less than 10 mg/kg.
# These effects persisted between 15 and 20 minutes and were shown by both sham-operated and SNL rats. These effects were not observed in rats that received doses less than 10 mg/kg. [drawing 22]
# However, these effects were more robust and of longer duration (60-90 min).
# These effects persisted between 60 and 90 minutes and were shown by both sham-operated and SNL rats. These effects were not observed in rats that received doses less than 10 mg/kg. [drawing 23]
# A model of neuropathic pain was created in rats by tight ligation of the L5 and L6 spinal nerves. […] Rats were then treated with various doses of dPQR (3, 10 and 30 mg/kg, i.p.) and paw withdrawal thresholds were tested across a period of 3 hours.
# A model of neuropathic pain was created in rats by tight ligation of the L5 and L6 spinal nerves. […] Rats were then treated with various doses of Compound 3099 (1, 3 and 10 mg/kg, i.p.) and paw withdrawal thresholds were tested across a period of 3 hours.
# In an attempt to increase the efficacy of Compound 3099 in the SNL model, we administered a dose of 30 mg/kg (i.p.) to SNL rats. […] Further, these behaviors were also transient, such that, by the end of the testing period these effects appeared to have resolved.
# [1] = tested on: L5/L6 SNL-induced Tactile Allodynia; assay: L5/L6 SNL-induced Tactile Allodynia; type: in vivo, rat; conditions: for effect on L5/L6 SNL-induced tactile allodynia (paw withdrawal thresholds): various doses; for sensitivity to non-noxious mechanical stimulation in sham-operated rats: 10 mg/kg (1045, 2616), 30 mg/kg (dPQR)
# Source text: This model of neuropathic pain was developed by Kim and Chung (Kim S H, Chung J M., “An experimental model for peripheral neuropathy produced by segmental spinal nerve ligation in the rat,” Pain, 1992 September; 50(3):355-63). This model requires the ligation of the L5 and L6 spinal nerves between the spinal cord and the entry point into the sciatic nerve. Seven to fourteen days following SNL surgery rats will be reassessed for their response thresholds to mechanical stimuli. For the assessment of paw withdrawal thresholds rats were allowed to acclimate within plexiglass enclosures for approximately 20 min. A series of calibrated von Frey filaments (1.56-15.0 g, logarithmically spaced) were applied to the plantar aspect of the injured hind paw until a response was elicited. Paw withdrawal thresholds to probing were determined according to a previously described method (Chaplan S R, Bach F W, Pogrel J W, Chung J M, Yaksh T L., “Quantitative assessment of tactile allodynia in the rat paw,” J Neurosci Methods, 1994 July;53(1):55-63). Paw withdrawal thresholds were determined to the nearest 0.1 g before surgery, then before and at multiple time points following compound administration. A significant reduction in the paw withdrawal threshold was interpreted as the presence of tactile allodynia.
# In order to study the endogenous activity of the NPFF system following injury to peripheral nerves, the activity of a FF1 receptor antagonist, dPQR, was assessed in a model of neuropathic pain. In this model, the L5 and L6 spinal nerves between the spinal cord and the entry point into the sciatic nerve were ligated (Kim & Chung, 1992). Seven to fourteen days following SNL surgery rats were reassessed for their response thresholds to mechanical stimuli. For the assessment of paw withdrawal thresholds rats were allowed to acclimate within plexiglass enclosures for approximately 20 min. A series of calibrated von Frey filaments (1.56-15.0 g, logarithmically spaced) were applied to the plantar aspect of the injured hind paw until a response was elicited. Paw withdrawal thresholds to probing were determined according to a previously described method (Chaplan et al., 1994). Paw withdrawal thresholds were determined to the nearest 0.1 g before surgery, then before and at multiple time points following compound administration. A significant reduction in the paw withdrawal threshold was interpreted as the presence of tactile allodynia.
# A model of neuropathic pain was created in rats by tight ligation of the L5 and L6 spinal nerves. […] Rats were then treated with various doses of Compound 1045 (1, 3 and 10 mg/kg, i.p.) and paw withdrawal thresholds were tested across a period of 2 hours.
# NPFF1 = NPFF1 (Homo sapiens, UniProt Q9GZQ6); assay: Receptor Selection and Amplification Technology (R-SAT) functional assay, NPFF1; type: cell-based; design: expressed in transfected cells; host or cells: NIH3T3; conditions: for NPFF1 % Efficacy Mean: Hydrochloride
# In short: as §1
# [2] = NPFF2b pEC50 Mean, R-SAT data, Table 2, multiple entries = different batches
# [3] = R-SAT data, Table 2, multiple entries = different batches
# [4] = R-SAT data, Table 2, multiple entries = different batches, read-out: NPFF2b % Efficacy Mean
# [5] = R-SAT data, Table 2, multiple entries = different batches, read-out: NPFF1 % Efficacy Mean
# [6] = R-SAT, Table 1, Efficacy is relative to endogenous ligand, read-out: NPFF2 % Efficacy
# [7] = R-SAT, Table 1, Efficacy is relative to endogenous ligand, read-out: NPFF1 % Efficacy
# T1 sequence (Q9Y5X5 103-522): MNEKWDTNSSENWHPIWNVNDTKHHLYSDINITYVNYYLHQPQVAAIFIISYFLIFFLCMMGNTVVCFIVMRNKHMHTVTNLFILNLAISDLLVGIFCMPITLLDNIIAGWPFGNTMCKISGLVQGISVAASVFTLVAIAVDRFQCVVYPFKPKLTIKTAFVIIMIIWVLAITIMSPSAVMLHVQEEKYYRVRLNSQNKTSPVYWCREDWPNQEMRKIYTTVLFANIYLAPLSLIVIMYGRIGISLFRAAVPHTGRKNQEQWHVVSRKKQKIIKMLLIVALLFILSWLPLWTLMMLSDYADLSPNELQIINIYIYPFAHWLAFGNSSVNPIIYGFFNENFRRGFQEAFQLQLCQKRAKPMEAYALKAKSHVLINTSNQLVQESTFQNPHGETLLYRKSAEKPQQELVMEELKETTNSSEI
# NPFF1, sequence (Q9GZQ6 whole entry, species assumed): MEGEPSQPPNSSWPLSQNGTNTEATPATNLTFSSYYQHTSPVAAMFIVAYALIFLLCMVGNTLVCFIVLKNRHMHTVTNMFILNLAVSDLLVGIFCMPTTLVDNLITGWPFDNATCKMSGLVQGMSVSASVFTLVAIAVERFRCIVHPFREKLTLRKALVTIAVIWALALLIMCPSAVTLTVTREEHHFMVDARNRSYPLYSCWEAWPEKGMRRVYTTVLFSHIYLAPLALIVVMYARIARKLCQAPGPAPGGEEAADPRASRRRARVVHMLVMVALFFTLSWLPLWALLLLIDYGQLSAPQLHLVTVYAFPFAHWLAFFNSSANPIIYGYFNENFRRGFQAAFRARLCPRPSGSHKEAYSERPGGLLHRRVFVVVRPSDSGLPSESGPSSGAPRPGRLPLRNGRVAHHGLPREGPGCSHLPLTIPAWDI
Compound,pEC50 (NPFF2; [2]),NPFF2b % Efficacy Mean (NPFF2; [3]),Emax (NPFF2; [4]),"side effects at doses less than 10 mg/kg (rats; rat, in vivo)","side effects observed (rats; rat, in vivo, ip, 10 mg/kg)","effect on L5/L6 SNL-induced tactile allodynia (paw withdrawal thresholds) ([1]; SNL rats, i.p., Hydrochloride)",NPFF1 % Efficacy Mean (NPFF1; [3]),Emax (NPFF1; [5]),Emax (NPFF2; [6]),Emax (NPFF1; [7]),further results
"NC(N)=NN=Cc1ccc(-c2ccccc2C(F)(F)F)o1 (racemic) [Compound 2616, 1-[(5-(2-(Trifluoromethyl)phenyl)-furan-2-yl)-methyleneamino]guanidine Hydrochloride]",7.00,80.4% and 72.9%,63%,not observed,demonstrated writhing behavior and appeared lethargic,either demonstrate very little efficacy or potentiate tactile allodynia; also recorded: dose-related potentiation of tactile allodynia,66.3% and 52.1%,55%,,,"duration of side effects (rats; rat, in vivo, ip, 10 mg/kg): 60 to 90 min; sensitivity to non-noxious mechanical stimulation in sham-operated rats ([1]; i.p., Hydrochloride): produced tactile allodynia in sham-operated rats; also recorded: significant reduction in the paw withdrawal thresholds of sham-operated rats; pEC50 (NPFF1): 7.40; EC50 (NPFF1; R-SAT data, Table 2, multiple entries = different batches, read-out: NPFF1 pEC50 Mean (converted)): 1260 nM and 316 nM"
"NC(N)=N/N=C/c1ccc(Cl)c(Cl)c1 [Compound 1045, 1-(3,4-Dichlorobenzylideneamino)guanidine Hydrochloride]",6.10 and 6.30,55.2%,63.8%,not observed,demonstrated writhing behavior and appeared lethargic,,,6.3%,64%,17%,"pEC50 (NPFF2; NPFF2 pEC50, R-SAT, Table 1, NA = No activity detectable at the highest dose tested (20 μM)): 6.10; duration of side effects (rats; SNL rats, 30 mg/kg): 60 to 90 min; new side effects noted (rats; rat, in vivo, 30 mg/kg): ptosis, shuffling/stomping and biting of forlimbs and hindlimbs; efficacy against SNL-induced tactile allodynia at 30 mg/kg ([1]; SNL rats, 30 mg/kg): initially efficacious at the 30 min time-point; paw withdrawal thresholds by 60 min and until the end of the testing session ([1]; SNL rats, 30 mg/kg, suggests potentiation of tactile allodynia): significantly reduced the paw withdrawal thresholds to levels below those obtained in SNL vehicle-treated rats; maximum efficacy, reversal of tactile allodynia ([1]; SNL rats, i.p.): 37.9%; sensitivity to non-noxious mechanical stimulation in sham-operated rats ([1]; i.p.): did not significantly alter sensitivity to non-noxious mechanical stimulation"
"Cl.N=C(N)N/N=C/c1ccc(Br)c(Br)c1 [Compound 3093, 1-(3,4-Dibromobenzylideneamino)guanidine Hydrochloride]",,89.9%,85.3%,,,dose-dependently reverse tactile allodynia; also recorded: dose-related reversal of tactile allodynia,11.7%,10.2%,89%,11%,"EC50 (NPFF2; R-SAT data, Table 2, multiple entries = different batches, read-out: NPFF2b pEC50 Mean (converted)): 631 nM and 1260 nM; EC50 (NPFF2; R-SAT, Table 1, NA = No activity detectable at the highest dose tested (20 μM), read-out: NPFF2 pEC50 (converted)): 1580 nM; behaviors observed (typically precede barrel-rolling seizures) (rats; rat, in vivo, ip, 30 mg/kg): immobility and staring, ataxia, splayed hind limbs, body swaying, lying on one side with spastic limb abduction and body distortions; time of peak effect after administration ([1]; SNL rats, i.p.): 30 min; calculated A50, reversal of tactile allodynia ([1]; SNL rats, i.p., 95% CI): 6.2 mg"
